In BindingDB's records for patent US20250145642 (Kineta, 2025) one finds IC50 data, which are given here for one compound.

The IC50 is the concentration needed to halve the response being measured. Low readings indicate inhibition by little substance, high ones a need for much substance.

The target in this test is T1, 1-phosphatidylinositol 3-phosphate 5-kinase [S696N,L932S,Q995L,T998S,S1033A,Q1183K] (Homo sapiens, UniProt Q9Y2I7, L932S/Q1183K/Q995L/S1033A/S696N/T998S).
T1 construct: gene PIKFYVE
In words: PIKfyve Biochemical Assay. The protocol:
The biochemical PIKfyve inhibition assays were run by Carna Biosciences according to proprietary methodology based on the Promega ADP-Glo™ Kinase assay. […] GST-PIKFYVE was purified by using glutathione sepharose chromatography and used in an ADP-Glo™ Kinase assay (Promega). Reactions were set up by adding the test compound solution, substrate solution, ATP solution and kinase solution, each at 4× final concentrations. Reactions were prepared with assay buffer (50 mM MOPS, 1 mM DTT, pH7.2), mixed, and incubated in black 384 well polystyrene plates for 1 hour at room temperature. ADP-Glo™ reagent was then added for 40 minutes, followed by kinase detection reagent for an additional 40 minutes. The kinase activity was evaluated by detecting relative light units on a luminescence plate reader. Samples were run in duplicate from 10 μM to 3 nM. […] IC50 values were calculated from concentration vs % inhibition curves by fitting to a four-parameter logistic curve.

T1 sequence (Q9Y2I7 2-2098 S696N/L932S/Q995L/T998S/S1033A/Q1183K limits assumed): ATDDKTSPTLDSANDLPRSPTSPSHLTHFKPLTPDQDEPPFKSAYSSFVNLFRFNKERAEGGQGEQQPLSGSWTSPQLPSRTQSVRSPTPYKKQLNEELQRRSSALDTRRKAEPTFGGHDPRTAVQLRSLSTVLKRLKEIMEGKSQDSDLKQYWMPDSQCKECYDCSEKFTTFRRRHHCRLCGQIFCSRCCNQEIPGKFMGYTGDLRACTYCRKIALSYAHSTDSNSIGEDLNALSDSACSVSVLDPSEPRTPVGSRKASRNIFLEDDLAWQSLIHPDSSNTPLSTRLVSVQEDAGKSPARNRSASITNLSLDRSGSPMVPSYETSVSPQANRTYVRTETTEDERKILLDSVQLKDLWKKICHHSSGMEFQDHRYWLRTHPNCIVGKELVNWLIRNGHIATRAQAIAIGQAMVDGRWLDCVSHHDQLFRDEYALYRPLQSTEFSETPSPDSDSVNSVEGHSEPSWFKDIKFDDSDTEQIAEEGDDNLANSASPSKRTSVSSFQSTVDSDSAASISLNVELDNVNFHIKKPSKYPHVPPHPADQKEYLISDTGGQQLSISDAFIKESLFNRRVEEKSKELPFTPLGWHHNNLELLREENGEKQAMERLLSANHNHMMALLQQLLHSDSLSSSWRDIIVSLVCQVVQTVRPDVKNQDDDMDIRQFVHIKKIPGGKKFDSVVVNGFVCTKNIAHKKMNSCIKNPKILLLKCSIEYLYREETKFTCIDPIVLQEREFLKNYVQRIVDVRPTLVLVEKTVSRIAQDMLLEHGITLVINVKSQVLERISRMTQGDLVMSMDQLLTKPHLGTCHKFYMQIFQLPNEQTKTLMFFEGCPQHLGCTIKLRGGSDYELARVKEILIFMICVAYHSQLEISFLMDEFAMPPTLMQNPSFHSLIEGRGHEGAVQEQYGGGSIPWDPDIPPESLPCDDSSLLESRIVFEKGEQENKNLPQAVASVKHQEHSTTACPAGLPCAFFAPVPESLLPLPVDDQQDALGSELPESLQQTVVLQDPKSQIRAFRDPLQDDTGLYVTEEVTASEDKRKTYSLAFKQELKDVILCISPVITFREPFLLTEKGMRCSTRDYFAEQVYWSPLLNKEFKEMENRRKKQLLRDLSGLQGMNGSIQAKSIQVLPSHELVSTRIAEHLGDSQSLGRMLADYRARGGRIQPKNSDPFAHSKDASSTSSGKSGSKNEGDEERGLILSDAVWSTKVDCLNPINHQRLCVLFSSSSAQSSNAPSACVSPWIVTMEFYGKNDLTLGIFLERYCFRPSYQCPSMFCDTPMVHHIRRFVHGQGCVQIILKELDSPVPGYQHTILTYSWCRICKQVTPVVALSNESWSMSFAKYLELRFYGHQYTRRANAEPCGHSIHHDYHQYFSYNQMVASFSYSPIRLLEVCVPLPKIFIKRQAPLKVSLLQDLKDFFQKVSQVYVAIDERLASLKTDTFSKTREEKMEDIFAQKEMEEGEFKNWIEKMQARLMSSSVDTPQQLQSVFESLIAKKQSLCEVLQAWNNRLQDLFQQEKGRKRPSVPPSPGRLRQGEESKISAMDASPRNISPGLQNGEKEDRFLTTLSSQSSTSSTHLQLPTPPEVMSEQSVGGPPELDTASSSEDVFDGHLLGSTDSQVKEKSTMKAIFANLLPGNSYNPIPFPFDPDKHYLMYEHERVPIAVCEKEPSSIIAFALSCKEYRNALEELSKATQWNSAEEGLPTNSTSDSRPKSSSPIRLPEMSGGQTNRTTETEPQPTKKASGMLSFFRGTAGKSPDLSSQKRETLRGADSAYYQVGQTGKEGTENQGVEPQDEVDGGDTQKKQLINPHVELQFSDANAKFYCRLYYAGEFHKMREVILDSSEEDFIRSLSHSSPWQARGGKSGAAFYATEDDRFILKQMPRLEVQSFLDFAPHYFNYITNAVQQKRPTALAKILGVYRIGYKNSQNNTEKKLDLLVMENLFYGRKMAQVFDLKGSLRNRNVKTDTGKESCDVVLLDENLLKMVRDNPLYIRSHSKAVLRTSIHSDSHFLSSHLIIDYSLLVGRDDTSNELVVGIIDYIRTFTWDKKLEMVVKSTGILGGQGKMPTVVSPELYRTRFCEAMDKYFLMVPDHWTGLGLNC

For the compound `c1ccc(-c2c[nH]c3c(-c4ccncc4)nc(N4CCOCC4)nc23)cc1` [US20250145642, Compound 135], the IC50 is under 10 nM.
